In patent US7745495B2, “Pyridine ketones with herbicidal effect” (Syngenta Crop Protection, Inc., priority 2004, dated 2010):

Columns and labels:
Format in all cases: in vivo
[1] = tested on: Setaria; experiment: Pre-emergent herbicidal activity; details: Table B3, rating 10=total damage, 0=no action
Procedure: (§1) Monocotyledonous and dicotyledonous test plants are sown in standard soil in plastic pots. […] The test plants are then grown in a greenhouse under optimum conditions. After a test duration of 3 weeks, the test is evaluated in accordance with a scale of ten ratings (10=total damage, 0=no action). Ratings of from 10 to 7 (especially from 10 to 8) indicate good to very good herbicidal action.
(§2) In the following Table B3, the pre-emergent herbicidal activity of compound H-14 according to the invention is compared with 4 compounds according to the prior art. All compounds are structurally identical except for the nature of the alkylene linker attached to the pyridine ring.

[2] = tested on: Brachiaria; experiment: Pre-emergent herbicidal activity; details: Table B3, rating 10=total damage, 0=no action
Procedure: as §1, §2

[3] = tested on: Echinochloa; experiment: Pre-emergence herbicidal action; details: rating 10=total damage, 0=no action; for Pre-emergent Herbicidal Activity: Echinochloa: Table B3; for Pre-emergence herbicidal action: Echinochloa: 250 g/ha, after 3 weeks
Procedure: as §1

[4] = tested on: Abutilon; experiment: Pre-emergence herbicidal action; details: rating 10=total damage, 0=no action; for Pre-emergent Herbicidal Activity: Abutilon: Table B3; for Pre-emergence herbicidal action: Abutilon: 250 g/ha, after 3 weeks
Procedure: as §1

[5] = tested on: Amaranthus; experiment: Pre-emergence herbicidal action; details: rating 10=total damage, 0=no action; for Pre-emergent Herbicidal Activity: Amaranthus: Table B3; for Pre-emergence herbicidal action: Amaranthus: 250 g/ha, after 3 weeks
Procedure: as §1

[6] = tested on: Corn; experiment: Pre-emergent herbicidal activity on crop plant; details: for Pre-emergent Herbicidal Activity: Corn: Table B3, crop plant, rating 10=total damage, 0=no action
Procedure: as §1, §2

[7] = tested on: Soya; experiment: Pre-emergent herbicidal activity on crop plant; details: for Pre-emergent Herbicidal Activity: Soya: Table B3, crop plant, rating 10=total damage, 0=no action
Procedure: as §1, §2

[8] = tested on: Setaria; experiment: Post-emergence herbicidal action; details: 250 g/ha; 4- to 6-leaf stage; after about 18 days; rating 10=total damage, 0=no action
Procedure: (§3) In a greenhouse, monocotyledonous and dicotyledonous test plants are grown in standard soil in plastic pots and at the 4- to 6-leaf stage are sprayed with an aqueous suspension of the test compounds of formula I prepared from a 25% wettable powder (Example F3, b) according to WO 97/34485) or with an emulsion of the test compounds of formula I prepared from a 25% emulsifiable concentrate (Example F1, c) according to WO 97/34485), in a concentration corresponding to 125 g or 250 g of active ingredient/ha (500 liter of water/ha). The test plants are then grown on in a greenhouse under optimum conditions. After a test duration of about 18 days, the test is evaluated in accordance with a scale of ten ratings (10=total damage, 0=no action). Ratings of from 10 to 7 (especially from 10 to 8) indicate good to very good herbicidal action.

[9] = tested on: Stellaria; experiment: Post-emergence herbicidal action; details: 250 g/ha; 4- to 6-leaf stage; after about 18 days; rating 10=total damage, 0=no action
Procedure: as §3

[10] = tested on: Chenopodium; experiment: Post-emergence herbicidal action; details: 250 g/ha; 4- to 6-leaf stage; after about 18 days; rating 10=total damage, 0=no action
Procedure: as §3

[11] = tested on: Abutilon; experiment: Post-emergence herbicidal action; details: 250 g/ha; 4- to 6-leaf stage; after about 18 days; rating 10=total damage, 0=no action
Procedure: as §3

[12] = tested on: Digitaria; experiment: Post-emergence herbicidal action; details: 250 g/ha; 4- to 6-leaf stage; after about 18 days; rating 10=total damage, 0=no action
Procedure: as §3

[13] = tested on: Sinapis; experiment: Post-emergence herbicidal action; details: 250 g/ha; 4- to 6-leaf stage; after about 18 days; rating 10=total damage, 0=no action
Procedure: as §3

[14] = tested on: Ipomea; experiment: Post-emergence herbicidal action; details: 250 g/ha; 4- to 6-leaf stage; after about 18 days; rating 10=total damage, 0=no action
Procedure: as §3

[15] = tested on: Panicum; experiment: Post-emergence herbicidal action; details: 250 g/ha; 4- to 6-leaf stage; after about 18 days; rating 10=total damage, 0=no action
Procedure: as §3

[16] = tested on: Stellaria; experiment: Pre-emergence herbicidal action; details: 250 g/ha; after 3 weeks; rating 10=total damage, 0=no action
Procedure: (§4) Monocotyledonous and dicotyledonous test plants are sown in standard soil in plastic pots. Immediately after sowing, the test compounds, in the form of an aqueous suspension (prepared from a 25% wettable powder (Example F3, b) according to WO 97/34485) or in the form of an emulsion (prepared from a 25% emulsifiable concentrate (Example F1, c)), are applied by spraying a concentration corresponding to 125 g or 250 g of active ingredient/ha (500 liter of water/ha). The test plants are then grown in a greenhouse under optimum conditions. After a test duration of 3 weeks, the test is evaluated in accordance with a scale of ten ratings (10=total damage, 0=no action). Ratings of from 10 to 7 (especially from 10 to 8) indicate good to very good herbicidal action.

[17] = tested on: Chenopodium; experiment: Pre-emergence herbicidal action; details: 250 g/ha; after 3 weeks; rating 10=total damage, 0=no action
Procedure: as §4

[18] = tested on: Digitaria; experiment: Pre-emergence herbicidal action; details: 250 g/ha; after 3 weeks; rating 10=total damage, 0=no action
Procedure: as §1

[19] = tested on: Panicum; experiment: Pre-emergence herbicidal action; details: 250 g/ha; after 3 weeks; rating 10=total damage, 0=no action
Procedure: as §1

[20] = pre-emergent, 30 and 15 g/ha, result in words on Table B3

Row | SMILES | Pre-emergent Herbicidal Activity: Setaria ([1]; 30 g/ha) | Pre-emergent Herbicidal Activity: Brachiaria ([2]; 15 g/ha) | Pre-emergent Herbicidal Activity: Brachiaria ([2]; 30 g/ha) | Pre-emergent Herbicidal Activity: Echinochloa ([3]; 30 g/ha) | Pre-emergent Herbicidal Activity: Abutilon ([4]; 15 g/ha) | Pre-emergent Herbicidal Activity: Abutilon ([4]; 30 g/ha) | Pre-emergent Herbicidal Activity: Amaranthus ([5]; 15 g/ha) | Pre-emergent Herbicidal Activity: Amaranthus ([5]; 30 g/ha) | Pre-emergent Herbicidal Activity: Corn ([6]; 15 g/ha) | Pre-emergent Herbicidal Activity: Corn ([6]; 30 g/ha) | Pre-emergent Herbicidal Activity: Soya ([7]; 15 g/ha) | Pre-emergent Herbicidal Activity: Soya ([7]; 30 g/ha) | Post-emergence herbicidal action: Setaria [8] | Post-emergence herbicidal action: Stellaria [9] | Post-emergence herbicidal action: Chenopodium [10] | Post-emergence herbicidal action: Abutilon [11] | Post-emergence herbicidal action: Digitaria [12] | Post-emergence herbicidal action: Sinapis [13] | Post-emergence herbicidal action: Ipomea [14] | Post-emergence herbicidal action: Panicum [15] | also measured
1 | COCCCCc1nc(C(F)(F)F)ccc1C(=O)C1C(=O)C2CCC(C2)C1=O (stereo not drawn) [Compound F] | 6 | 0 | 6 | 7 | 8 | 8 | 7 | 7 | 0 | 0 | 0 | 0 | – | – | – | – | – | – | – | – | phytotoxic effect on the crop plants (corn) [6, 20]: no phytotoxic effect; phytotoxic effect on the crop plants (soya) [7, 20]: no phytotoxic effect
2 | COCCCc1nc(C(F)(F)F)ccc1C(=O)C1C(=O)C2CCCC(C2)C1=O (stereo not drawn) [Compound H-19] | – | – | – | – | – | – | – | – | – | – | – | – | 8 | 8 | 9 | 8 | 9 | 9 | 8 | 8 | –
3 | COCCCc1nc(C(F)F)ccc1C(=O)C1C(=O)C2CCC(CC2)C1=O (stereo not drawn) [Compound H-4] | – | – | – | – | – | – | – | – | – | – | – | – | 7 | 8 | 7 | 8 | 9 | 9 | 7 | 9 | Pre-emergence herbicidal action: Stellaria [16]: 7; Pre-emergence herbicidal action: Chenopodium [17]: 9; Pre-emergence herbicidal action: Echinochloa [3]: 9; Pre-emergence herbicidal action: Abutilon [4]: 9; Pre-emergence herbicidal action: Digitaria [18]: 9; Pre-emergence herbicidal action: Panicum [19]: 9; Pre-emergence herbicidal action: Amaranthus [5]: 9
4 | COC/C=C\c1nc(C(F)(F)F)ccc1C(=O)C1C(=O)C2CCC(C2)C1=O (stereo not drawn) [C] | 2 | 0 | 0 | 3 | 3 | 4 | 3 | 5 | 0 | 0 | 0 | 0 | – | – | – | – | – | – | – | – | Pre-emergent Herbicidal Activity: Setaria ([1]; 15 g/ha): 2; Pre-emergent Herbicidal Activity: Echinochloa ([3]; 15 g/ha): 3
5 | CCC12CCC(C1)C(=O)C(C(=O)c1ccc(C(F)(F)F)nc1CCCOC)C2=O (stereo not drawn) [Compound H-17] | – | – | – | – | – | – | – | – | – | – | – | – | 8 | 9 | 8 | 9 | 7 | 9 | 7 | 8 | –
6 | COCc1nc(C(F)(F)F)ccc1C(=O)C1C(=O)C2CCC(C2)C1=O (stereo not drawn) [B] | 9 | 6 | 9 | 10 | 8 | 9 | 6 | 8 | 1 | 1 | 6 | 8 | – | – | – | – | – | – | – | – | Pre-emergent Herbicidal Activity: Setaria ([1]; 15 g/ha): 8; Pre-emergent Herbicidal Activity: Echinochloa ([3]; 15 g/ha): 9
7 | COCCCc1nc(C(F)(F)F)ccc1C(=O)C1C(=O)C2CCC(C)(C2)C1=O (stereo not drawn) [Compound H-16] | – | – | – | – | – | – | – | – | – | – | – | – | 10 | 10 | 10 | 9 | 9 | 10 | 9 | 10 | Pre-emergence herbicidal action: Stellaria [16]: 8; Pre-emergence herbicidal action: Chenopodium [17]: 9; Pre-emergence herbicidal action: Echinochloa [3]: 10; Pre-emergence herbicidal action: Abutilon [4]: 10; Pre-emergence herbicidal action: Digitaria [18]: 10; Pre-emergence herbicidal action: Panicum [19]: 10; Pre-emergence herbicidal action: Amaranthus [5]: 8
8 | COCCCc1nc(C(F)F)ccc1C(=O)C1C(=O)C2CCC(C)(C2)C1=O (stereo not drawn) [Compound H-1] | – | – | – | – | – | – | – | – | – | – | – | – | 8 | 8 | 8 | 9 | 9 | 8 | 9 | 9 | Pre-emergence herbicidal action: Stellaria [16]: 7; Pre-emergence herbicidal action: Chenopodium [17]: 10; Pre-emergence herbicidal action: Echinochloa [3]: 9; Pre-emergence herbicidal action: Abutilon [4]: 9; Pre-emergence herbicidal action: Digitaria [18]: 9; Pre-emergence herbicidal action: Panicum [19]: 9; Pre-emergence herbicidal action: Amaranthus [5]: 9
9 | COCCc1nc(C(F)(F)F)ccc1C(=O)C1C(=O)C2CCC(C2)C1=O (stereo not drawn) [A] | 7 | 6 | 7 | 9 | 9 | 9 | 7 | 7 | 0 | 0 | 2 | 5 | – | – | – | – | – | – | – | – | Pre-emergent Herbicidal Activity: Setaria ([1]; 15 g/ha): 6; Pre-emergent Herbicidal Activity: Echinochloa ([3]; 15 g/ha): 4
